Tests used:
[1] = biological target: T1, rat adrenergic α1A receptor (Rattus norvegicus, UniProt P43140); assay: Adrenergic α1A radioligand binding ([3H]Prazosin); settings: read-out: Adrenergic (0.1 μM) a1A, percent inhibition of specific binding; compound at 0.1 μM; 0.25 nM [3H]Prazosin
T1 construct: rat adrenergic α1A receptor obtained from Wistar Rat submaxillary glands; from tissue; host or cells: Wistar rat submaxillary glands
T1 sequence (P43140 1-466): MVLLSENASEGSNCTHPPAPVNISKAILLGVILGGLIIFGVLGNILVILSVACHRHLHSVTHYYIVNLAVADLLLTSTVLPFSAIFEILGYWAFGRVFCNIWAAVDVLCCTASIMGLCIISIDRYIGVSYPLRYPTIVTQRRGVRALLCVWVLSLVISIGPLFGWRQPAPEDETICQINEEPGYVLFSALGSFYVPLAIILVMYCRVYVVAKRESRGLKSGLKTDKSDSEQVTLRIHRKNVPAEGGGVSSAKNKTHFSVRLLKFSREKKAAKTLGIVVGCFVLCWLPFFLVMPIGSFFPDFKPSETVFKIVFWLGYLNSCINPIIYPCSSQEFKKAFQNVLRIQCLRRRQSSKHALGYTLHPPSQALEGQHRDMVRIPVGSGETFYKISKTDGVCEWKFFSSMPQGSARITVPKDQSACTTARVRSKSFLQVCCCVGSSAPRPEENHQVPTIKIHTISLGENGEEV
Outline: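 Wistar rat submaxillary gland receptor in 50 mM Tris-HCl pH 7.4 with 0.5 mM EDTA, incubated with compound and 0.25 nM [3H]Prazosin for 60 min at 25 °C.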

[2] = biological target: T2, human recombinant adrenergic α2C receptor (Homo sapiens, UniProt P18825); assay: Adrenergic α2C radioligand binding ([3H]MK-912); settings: read-out: Adrenergic (0.1 μM) a2C, percent inhibition of specific binding; compound at 0.1 μM; 1 nM [3H]MK-912
T2 construct: expressed in transfected cells; host or cells: insect Sf9 cells
T2 sequence (P18825 1-462): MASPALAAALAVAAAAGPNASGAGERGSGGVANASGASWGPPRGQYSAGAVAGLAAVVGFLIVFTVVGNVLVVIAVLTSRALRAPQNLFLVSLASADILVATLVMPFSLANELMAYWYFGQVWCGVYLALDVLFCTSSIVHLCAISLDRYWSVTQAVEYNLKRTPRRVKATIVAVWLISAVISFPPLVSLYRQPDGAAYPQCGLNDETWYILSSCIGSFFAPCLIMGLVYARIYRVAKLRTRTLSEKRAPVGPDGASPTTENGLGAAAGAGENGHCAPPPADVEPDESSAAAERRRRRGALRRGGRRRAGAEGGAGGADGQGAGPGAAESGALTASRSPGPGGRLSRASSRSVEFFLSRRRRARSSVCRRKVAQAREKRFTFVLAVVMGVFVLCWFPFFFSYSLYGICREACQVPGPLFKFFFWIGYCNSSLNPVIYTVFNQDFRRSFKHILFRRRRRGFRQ
Outline: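 Membranes from Sf9 cells expressing the human receptor, in 50 mM Tris-HCl pH 7.4 with 12.5 mM MgCl2 and 2 mM EDTA, incubated with compound and 1 nM [3H]MK-912 for 60 min at 25 °C. Non-specific binding defined with 10 μM WB-4101. Filter-bound radioactivity counted; percent inhibition of specific binding reported.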

[3] = biological target: T3, human recombinant serotonin (5-Hydroxytryptamine) 5-HT2C receptor (Homo sapiens, UniProt P28335); assay: Serotonin 5-HT2C radioligand binding ([3H]Mesulergine); settings: compound at 0.1 μM; read-out: Inhibition of ligand binding, Serotonin 5-HT2C (percent inhibition of specific binding)
T3 construct: expressed in transfected cells; host or cells: CHO-K1
T3 sequence (P28335 33-458): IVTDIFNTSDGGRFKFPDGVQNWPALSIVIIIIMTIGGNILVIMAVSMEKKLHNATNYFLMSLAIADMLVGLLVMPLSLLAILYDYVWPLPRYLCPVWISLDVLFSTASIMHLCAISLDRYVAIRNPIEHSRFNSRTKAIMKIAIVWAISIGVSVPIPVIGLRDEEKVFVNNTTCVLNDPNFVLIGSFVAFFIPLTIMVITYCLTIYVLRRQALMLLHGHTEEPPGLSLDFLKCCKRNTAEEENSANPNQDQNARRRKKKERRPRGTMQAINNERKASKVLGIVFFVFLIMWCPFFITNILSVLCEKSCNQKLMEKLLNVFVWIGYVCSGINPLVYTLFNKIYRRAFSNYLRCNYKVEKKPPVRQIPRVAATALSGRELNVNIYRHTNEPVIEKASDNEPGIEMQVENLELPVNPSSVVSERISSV
Experimental: Compounds of the invention were incubated with 1 nM [^3H]Mesulergine for 60 min at 25° C. Non-specific binding was estimated in the presence of 1 μM Mianserin. Receptor proteins were filtered and washed, the filters were then counted to determine [^3H]Mesulergine specifically bound.

[4] = biological target: T4, human recombinant serotonin (5-Hydroxytryptamine) 5-HT2A receptor (Homo sapiens, UniProt P28223); assay: Serotonin 5-HT2A radioligand binding ([3H]Ketanserin); settings: compound at 0.1 μM; read-out: Inhibition of ligand binding, Serotonin 5-HT2A (percent inhibition of specific binding)
T4 construct: expressed in transfected cells; host or cells: CHO-K1
Experimental: Compounds of the invention were incubated with 0.5 nM [^3H]Ketanserin for 60 min at 25° C. Non-specific binding was estimated in the presence of 1 μM Mianserin. Receptor proteins were filtered and washed, the filters were then counted to determine [^3H]Ketanserin specifically bound.

[5] = biological target: T5, human recombinant serotonin (5-Hydroxytryptamine) 5-HT5A receptor (Homo sapiens, UniProt P47898); assay: Serotonin 5-HT5A radioligand binding ([3H]LSD); settings: compound at 0.1 μM; read-out: Inhibition of ligand binding, Serotonin 5-HT5A (percent inhibition of specific binding)
T5 construct: expressed in transfected cells; host or cells: CHO-K1
Experimental: Compounds of the invention were incubated with 1.7 nM [^3H]Lysergic acid diethylamide (LSD) for 60 min at 37° C. […] Receptor proteins were filtered and washed, the filters were counted to determine [^3H]LSD specifically bound.

T5 sequence (P47898 whole entry): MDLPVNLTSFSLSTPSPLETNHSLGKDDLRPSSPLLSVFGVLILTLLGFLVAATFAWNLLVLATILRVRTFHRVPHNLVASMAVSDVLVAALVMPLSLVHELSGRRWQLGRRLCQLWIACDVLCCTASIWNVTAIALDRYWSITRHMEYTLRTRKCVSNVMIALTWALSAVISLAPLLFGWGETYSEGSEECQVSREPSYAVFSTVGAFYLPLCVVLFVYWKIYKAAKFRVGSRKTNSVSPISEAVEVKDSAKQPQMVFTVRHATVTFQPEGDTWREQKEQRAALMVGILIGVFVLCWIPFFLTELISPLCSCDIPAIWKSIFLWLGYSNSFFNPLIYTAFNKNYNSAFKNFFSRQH
T4 sequence (P28223 whole entry): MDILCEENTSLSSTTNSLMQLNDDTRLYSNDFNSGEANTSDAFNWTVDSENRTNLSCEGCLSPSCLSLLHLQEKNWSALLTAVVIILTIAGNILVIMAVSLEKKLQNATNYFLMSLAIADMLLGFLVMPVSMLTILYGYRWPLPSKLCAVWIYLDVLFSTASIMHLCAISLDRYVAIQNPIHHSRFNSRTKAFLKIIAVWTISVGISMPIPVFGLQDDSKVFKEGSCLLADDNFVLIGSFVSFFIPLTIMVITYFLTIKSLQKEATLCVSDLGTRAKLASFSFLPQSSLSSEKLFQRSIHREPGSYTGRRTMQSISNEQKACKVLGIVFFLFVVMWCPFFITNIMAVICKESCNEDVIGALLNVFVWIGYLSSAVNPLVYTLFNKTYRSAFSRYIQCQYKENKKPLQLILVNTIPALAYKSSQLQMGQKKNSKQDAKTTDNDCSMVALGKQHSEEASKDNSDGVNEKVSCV

| SMILES | inhibition at 0.1 µM [1] | inhibition at 0.1 µM [2] | inhibition at 0.1 µM [3] | inhibition at 0.1 µM [4] | inhibition at 0.1 µM [5] |
| --- | --- | --- | --- | --- | --- |
| Cc1ccc2c(c1)c1c(n2-c2cscc2C(=O)N(C)C)CCN(C)C1 [Compound No. 152] | 6% | 12% | 22% | 31% | 14% |
| Cc1ccc2c(c1)c1c(n2-c2ccc3ccncc3c2)CCN(C)C1 [Compound No. 74, 5-(isoquinolin-7-yl)-2,8-dimethyl-2,3,4,5-tetrahydro-1H-pyrido[4,3-b]indole] | 52% | 11% | 51% | 34% | 21% |
| Cc1ccc2c(c1)c1c(n2-c2ccc(-c3ccc(C)nc3)cn2)CCN(C)C1 [Compound No. 156, 2,8-dimethyl-5-(6′-methyl-3,3′-bipyridin-6-yl)-2,3,4,5-tetrahydro-1H-pyrido[4,3-b]indole] | 39% | -13% | 96% | 90% | 41% |
| Cc1ccc2c(c1)c1c(n2-c2ccccc2-c2ccc(F)nc2)CCN(C)C1 [Compound No. 84, 5-(2-(6-fluoropyridin-3-yl)phenyl)-2,8-dimethyl-2,3,4,5-tetrahydro-1H-pyrido[4,3-b]indole] | 61% | 23% | 75% | 89% | 29% |
| CC(=O)Nc1ccc(-c2cccc(-n3c4c(c5cc(C)ccc53)CN(C)CC4)c2)cn1 [Compound 45, N-(5-(3-(2,8-dimethyl-3,4-dihydro-1H-pyrido[4,3-b]indol-5(2H)-yl)phenyl)pyridin-2-yl)acetamide] | 13% | 7% | 26% | 71% | 37% |
| Cc1ccc2c(c1)c1c(n2-c2ccc(-c3ccnn3C)cn2)CCN(C)C1 [Compound No. 146, 2,8-dimethyl-5-(5-(1-methyl-1H-pyrazol-5-yl)pyridin-2-yl)-2,3,4,5-tetrahydro-1H-pyrido[4,3-b]indole] | 33% | -1% | 30% | 57% | 10% |
| Cc1ccc2c(c1)c1c(n2-c2ccc3c(c2)CCN(C=O)C3)CCN(C)C1 [Compound No. 77, 6-(2,8-dimethyl-1,2,3,4-tetrahydro-pyrido[4,3-b]indol-5-yl)-3,4-dihydro-1H-isoquinoline-2-carbaldehyde] | 20% | 0% | 51% | 36% | 21% |
| Cc1ccc2c(c1)c1c(n2-c2cccc(-c3ccc(O)nc3)c2)CCN(C)C1 [Compound 52, 5-(3-(2,8-dimethyl-3,4-dihydro-1H-pyrido[4,3-b]indol-5(2H)-yl)phenyl)pyridin-2-ol] | -1% | 2% | 19% | 76% | 55% |
| Cc1ccc2c(c1)c1c(n2-c2cscc2-c2ccc(O)nc2)CCN(C)C1 [Compound 49] | 15% | -10% | 19% | 18% | 52% |
| Cc1csc(-c2ccccc2-n2c3c(c4cc(C)ccc42)CN(C)CC3)c1 [Compound 36] | -6% | 67% | 83% | 80% | 50% |
| CNC(=O)c1ccc(-c2cscc2-n2c3c(c4cc(C)ccc42)CN(C)CC3)cn1 [Compound No. 73] | 71% | 2% | 43% | 64% | 48% |
| Cc1ccc2c(c1)c1c(n2-c2ccccc2-c2ccc(C)s2)CCN(C)C1 [Compound No. 81, 2,8-dimethyl-5-(2-(5-methylthiophen-2-yl)phenyl)-2,3,4,5-tetrahydro-1H-pyrido[4,3-b]indole] | 34% | 41% | 89% | 87% | 69% |

Reference: patent US9187471B2, “Pyrido [4,3-b] indole and pyrido [3,4-b] indole derivatives and methods of use” (Medivation Technologies, Inc., priority 2010, dated 2015)
